For assay [1], the system named is Fibroblasts (primary human lung and dermal, HFL-1, 3T3 etc). Briefly: Cell proliferation assay (BrdU incorporation). It is filed as cell-based. The note with it: HFL1, stimulant (LPA, TGFb, serum etc), 50% inhibition of the increase of BrdU incorporation. In short, it runs like this:
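Serum-starved (24-48 h) fibroblasts pretreated with compound 0-30 min, then stimulated (LPA, TGFb, serum etc) for 16-24 h before BrdU, labelled a further 8 h. BrdU incorporation read by ELISA at 450 nm; IC50 taken as 50% inhibition of the stimulant-induced increase over unstimulated wells.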
For orientation: Incorporation of labelled thymidine or its analogues reports DNA synthesis.

In assay [2] the test system is TGF-b induced Endothelin-1 production. Put plainly: ET-1 assay: inhibitory effect on TGF-b induced endothelin-1 production. It is filed as cell-based. The conditions noted are these: Homo sapiens, Fibroblast; fibroblasts, stimulant (TGFb, serum, LPA etc), ET-1 in media by ELISA, 4-parameter fit. In short, it runs like this:
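Fibroblasts (primary human lung/dermal, HFL-1, 3T3) serum-starved 0-48 h, preincubated ~30 min with compound, then stimulated (TGFb, serum or LPA) for 16-48 h. Secreted ET-1 measured by ELISA; EC50 from 4-parameter logistic fit, with CC50 from ATPlite in the same wells.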

In general, IC50 refers to the point on the concentration scale where inhibition reaches its midpoint. A lower IC50 goes with higher potency. By EC50 is commonly meant the concentration needed to bring the measured effect to its halfway point. Low readings indicate an effect from little substance, high ones a need for much substance. In the case of `CCn1ccc2c(-c3cnn(CCO)c3)cn(-c3ccc(OC(F)(F)F)cc3)c(=O)c21` [Compound 615], the 50% inhibitory concentration (IC50) in assay [1] is < 50 µM. For the same compound, the EC50 in assay [2] was < 50 µM.
Consider `Cc1cc(=O)n(-c2ccc(OC(F)(F)F)cc2)cc1-c1ccc(F)c(Cl)c1` [Compound 195], for which the IC50 in assay [1] is < 50 µM. The EC50 in assay [2] was < 50 µM.
As to `CCOc1ccc(-n2cc(-c3cn[nH]c3)c3nccnc3c2=O)c(C)c1` [Compound 574], in assay [1], the IC50 was < 50 µM. Further, the EC50 in assay [2] is < 50 µM.
Turning to `CCn1cc2c(-c3cnn(C)c3)cn(-c3ccc(OC(F)(F)F)cc3)c(=O)c2n1` [Compound 657], the IC50 in assay [1] was < 50 µM. The EC50 in assay [2] was < 50 µM.
Take `CC(C)Oc1ccc(-n2cc(-c3cccc(Cl)c3)ccc2=O)cc1` [Compound 316]: the IC50 in assay [1] is < 50 µM. Besides, in assay [2], the EC50 was < 50 µM.
Consider `CCOc1ccc(-n2cc(-c3cn[nH]c3)c3cc[nH]c3c2=O)c(C)c1` [Compound 607], for which, in assay [1], the IC50 was < 50 µM. Also, in assay [2], the EC50 is < 50 µM.
As for `O=C1COc2c(-c3ccc(F)cc3)cn(-c3ccc(OC(F)(F)F)cc3)c(=O)c2N1Cc1ccccc1` [Compound 51], in assay [1], the IC50 is > 200 µM. In assay [2], the EC50 was > 200 µM.
As to `COCCn1ccc2c(-c3cnn(C)c3)cn(-c3ccc(OC(F)(F)F)cc3)c(=O)c21` [Compound 651], in assay [1], the IC50 was < 50 µM. Also, the EC50 in assay [2] was < 50 µM.
With `Cc1cc(=O)n(-c2cccc3c2OCO3)cc1-c1ccc(F)cc1` [Compound 184], the IC50 in assay [1] is < 50 µM. The EC50 in assay [2] lay within 50 to 200 µM.
In the same order, the values of `Cn1cc(-c2cn(-c3ccc(OC(F)(F)F)cc3)c(=O)cc2NCc2cncnc2)cn1` [Compound 531] are < 50 µM and < 50 µM.
In the same order, the values of `Cc1cc(=O)n(-c2ccc(OC(F)(F)F)cc2)cc1-c1cccc2ncsc12` [Compound 263] are < 50 µM and < 50 µM.
In the same order, the values of `Cc1cc(=O)n(-c2ccc(OC(C)C)cc2C)cc1-c1cnn(C)c1` [Compound 234] are > 200 µM and > 200 µM.
For `Cc1cc(-c2cnn(C)c2)cn(-c2ccccc2)c1=O` [Compound 353], in assay [1], the IC50 is > 200 µM. Besides, in assay [2], the EC50 lay within 50 to 200 µM.
In the same order, the values of `Cn1cc(-c2cn(-c3ccc(OC(F)(F)F)cc3)c(=O)cc2NCc2ccc(F)cc2F)cn1` [Compound 404] are < 50 µM and < 50 µM.
In the same order, the values of `CCn1c(=O)oc2cc(-c3cn(-c4ccc(OC(F)(F)F)cc4)c(=O)cc3C)ccc21` [Compound 430] are < 50 µM and < 50 µM.
In the same order, the values of `CCOc1ccc(-n2cc(-c3ccc(F)cc3)c(C)cc2=O)c(C)c1` [Compound 175] are < 50 µM and 50 to 200 µM.
Regarding `Cc1cc(=O)n(-c2ccc(OC(F)(F)F)cc2)cc1-c1cccc2scnc12` [Compound 261], the IC50 in assay [1] is < 50 µM. In addition, the EC50 in assay [2] is > 200 µM.
The matching figures for `O=c1c2nccnc2ccn1-c1ccc(OC(F)(F)F)cc1` [Compound 575]: < 50 µM and < 50 µM.
In the same order, the values of `Cc1ccc(=O)n(-c2cc(F)c(F)c(F)c2)c1` [Compound 282] are > 200 µM and > 200 µM.
`Cc1cc(=O)n(-c2cccc(C(N)=O)c2)cc1-c1ccc(F)cc1` [Compound 189]: the IC50 in assay [1] was > 200 µM. Also, the EC50 in assay [2] was > 200 µM.
For `Cc1nc2c(-c3cnn(C)c3)cn(-c3ccc(OC(F)(F)F)cc3)c(=O)c2s1` [compound 584], the IC50 in assay [1] was < 50 µM. Also, the concentration giving a half-maximal response (EC50) in assay [2] is < 50 µM.
Regarding `Cn1cc(C2=CN(c3ccc(OC(F)(F)F)cc3)CC=C2Oc2ccc(C(N)=O)cc2)cn1` [Compound 535], the IC50 in assay [1] is < 50 µM. In assay [2], the EC50 was < 50 µM.
For `Cn1cc(-c2cn(-c3ccc(OC(F)(F)F)cc3)c(=O)c3scnc23)cn1` [Compound 583], the IC50 in assay [1] was < 50 µM. The half-maximal effective concentration (EC50) in assay [2] is < 50 µM.
Consider `O=c1c2c(ccn2C2CC2)c(-c2cn[nH]c2)cn1-c1ccc(OC(F)(F)F)cc1` [Compound 650], for which the IC50 in assay [1] is < 50 µM. The EC50 in assay [2] is < 50 µM.
Take `Cn1cc(-c2cn(-c3ccc(OC(F)(F)F)cc3)c(=O)c3cccnc23)cn1` [Compound 43]: the IC50 in assay [1] was > 200 µM. In addition, in assay [2], the EC50 is < 50 µM.
The matching figures for `CCn1nc2c(-c3cn[nH]c3)cn(-c3ccc(OC(F)(F)F)cc3)c(=O)c2n1` [Compound 620]: < 50 µM and < 50 µM.
In the same order, the values of `CCn1nnc2c(=O)n(-c3ccc(OC(F)(F)F)cc3)cc(-c3cnn(C)c3)c21` [Compound 624] are < 50 µM and < 50 µM.
In the same order, the values of `COc1cc(-n2cc(-c3ccc(F)cc3)c(C)cc2=O)cc(OC)c1OC` [Compound 180] are < 50 µM and 50 to 200 µM.
With `Cc1ccc(-n2cc(-c3ccc(F)cc3)c(C)cc2=O)cc1` [Compound 216], the IC50 in assay [1] was < 50 µM. This compound had an EC50 in assay [2] of 50 to 200 µM.
As for `O=c1c2nccnc2c(-c2cn[nH]c2)cn1-c1ccc(Cl)cc1` [Compound 399], the IC50 in assay [1] was < 50 µM. Further, the EC50 in assay [2] is > 200 µM.
In the same order, the values of `Cc1cc(=O)n(-c2ccc(OC(F)(F)F)cc2)cc1-c1ccc2nonc2c1` [Compound 259] are < 50 µM and 50 to 200 µM.
The matching figures for `O=c1ccc(-c2ccc(F)cc2)cn1-c1ccccc1F` [Compound 290]: > 200 µM and 50 to 200 µM.
For the compound `Cc1cc(=O)n(-c2ccc(OC(F)(F)F)cc2)cc1-c1ccc2nccn2c1` [Compound 252], the IC50 in assay [1] is 50 to 200 µM. The EC50 in assay [2] was 50 to 200 µM.
For `Cc1cc(=O)n(-c2ccc(OC(F)(F)F)cc2)cc1-c1cscn1` [Compound 262], the IC50 in assay [1] was < 50 µM. The compound further displayed an EC50 in assay [2] of 50 to 200 µM.
The matching figures for `CCn1ccc2c(=O)n(-c3ccc(OC(F)(F)F)cc3)cc(-c3ccc(F)cc3)c21` [Compound 626]: < 50 µM and < 50 µM.
The matching figures for `Cc1cc(=O)n(-c2ccc(OC(F)(F)F)cc2)cc1-c1ccc2scnc2c1` [Compound 251]: < 50 µM and < 50 µM.
The matching figures for `Cn1cc(-c2cn(-c3ccc(OC(F)(F)F)cc3)c(=O)c3[nH]nnc23)cn1` [Compound 631]: > 200 µM and < 50 µM.
Take `Cc1cc(=O)n(-c2ccc(OC(F)(F)F)cc2)cc1-c1cn(C)nc1C(F)(F)F` [Compound 238]: the IC50 in assay [1] was < 50 µM. Also, the EC50 in assay [2] was in the range of 50 to 200 µM.
In the same order, the values of `CCOc1ccc(-n2cc(-c3cn[nH]c3)ccc2=O)c(C)c1` [Compound 376] are > 200 µM and < 50 µM.
In the same order, the values of `Cc1cc(=O)n(-c2ccc(Cl)cc2C)cc1-c1cnn(C)c1` [Compound 229] are < 50 µM and 50 to 200 µM.
In the same order, the values of `O=c1c2[nH]ccc2c(-c2cn[nH]c2)cn1-c1ccc(OC(F)(F)F)cc1` [Compound 604] are < 50 µM and < 50 µM.
As to `Cc1cc(=O)n(-c2ccc(OC(F)(F)F)cc2)cc1-c1ccc2c(c1)OCCO2` [Compound 201], in assay [1], the IC50 was < 50 µM. The compound also showed an EC50 in assay [2] of 50 to 200 µM.
The matching figures for `Cc1n[nH]c(C)c1-c1ccc(=O)n(-c2ccc(OC(F)(F)F)cc2)c1` [Compound 383]: 50 to 200 µM and 50 to 200 µM.

For the origin of these results see US10233195B2, “Anti-fibrotic pyridinones” (InterMune, Inc., priority 2014, dated 2019).
